Data published in US20070128217A1 (priority 2003, published 2007).

Columns and labels:
[1] = test system: rabbit serum obtained by immunizing a rabbit with the SARS-CoV strain Frankfurt 1; assay type: binding; set-up: Binding of a rabbit serum to linear peptides / Binding of a rabbit serum to looped peptides / Rabbit serum linear peptides / Rabbit serum looped peptides / Binding of a rabbit serum to linear peptides of protein N of SARS-CoV Urbani (Rabbit serum linear peptides) / Binding of a rabbit serum to looped/cyclic peptides of protein N of SARS-CoV Urbani (Rabbit serum looped peptides): unit not given here
[2] = test system: control sera (pooled serum of ten healthy LUMC hospital workers; commercial negative donor pooled serum from the Dutch bloodbank); assay type: binding, human; set-up: Binding of Control serum LUMC to linear peptides / Binding of Control serum Blood-bank to linear peptides / Binding of Control serum LUMC to looped peptides / Binding of Control Serum Blood-Bank to Looped peptides / Binding of Control serum LUMC to linear peptides of the protein M of SARS-CoV Urbani / Binding of Control serum Blood-bank to linear peptides of the protein M of SARS-CoV Urbani / Binding of Control serum LUMC to looped peptides of the protein M of SARS-CoV Urbani / Binding of Control Serum Blood-Bank to Looped peptides of the protein M of SARS-CoV Urbani: unit not given here
[3] = test system: antibodies in sera from SARS patients (sera 1a, 1b, 2, 6, 37, 62, London, SARS-yellow, SARS-green); assay type: binding, human; set-up: Binding of serum 6 to linear peptides of protein X1 of SARS-CoV Urbani / Binding of serum 37 to linear peptides of protein X1 of SARS-CoV Urbani / Binding of serum 6 to looped/cyclic peptide (PEPSCAN-ELISA) / Binding of serum 37 to looped/cyclic peptide (PEPSCAN-ELISA) / Binding of serum 37 to looped/cyclic peptides of protein X1 of SARS-CoV Urbani / Binding of serum 6 to linear peptides of protein X2 / Binding of serum 37 to linear peptides of protein X2 / Binding of serum 37 to looped/cyclic peptides of protein X2 of SARS-CoV Urbani / Binding of serum 6 to linear peptides of protein M of SARS-CoV Urbani / Binding of serum 37 to linear peptides of protein M of SARS-CoV Urbani / Binding of serum 6 to looped/cyclic peptides of protein M of SARS-CoV Urbani / Binding of serum 37 to looped/cyclic peptides of protein M of SARS-CoV Urbani / Binding of serum 6 to linear peptides of protein X3 of SARS-CoV Urbani / Binding of serum 37 to linear peptides of protein X3 of SARS-CoV Urbani / Binding of serum 37 to looped/cyclic peptides of protein X3 of SARS-CoV Urbani / Binding of serum 6 to linear peptides of protein X4 of SARS-CoV Urbani / Binding of serum 37 to linear peptides of protein X4 of SARS-CoV Urbani / Binding of serum 37 to looped/cyclic peptides of protein X4 of SARS-CoV Urbani / Binding of serum 6 to linear peptides of protein X5 of SARS-CoV Urbani / Binding of serum 37 to linear peptides of protein X5 of SARS-CoV Urbani / Binding of serum 37 to looped/cyclic peptides of protein X5 of SARS-CoV Urbani / Binding of serum 6 to linear peptides of protein N of SARS-CoV Urbani / Binding of serum 37 to linear peptides of protein N of SARS-CoV Urbani / Binding of serum 6 to linear peptide (PEPSCAN-ELISA) / Binding of serum 1a to looped/cyclic peptides of protein N of SARS-CoV Urbani / Binding of serum 1b to looped/cyclic peptides of protein N of SARS-CoV Urbani / Binding of serum 2 to looped/cyclic peptides of protein N of SARS-CoV Urbani / Binding of serum 6 to looped/cyclic peptides of protein N of SARS-CoV Urbani / Binding of serum 37 to looped/cyclic peptides of protein N of SARS-CoV Urbani / Binding of serum 62 to looped/cyclic peptides of protein N of SARS-CoV Urbani / Binding of serum London to looped/cyclic peptides of protein N of SARS-CoV Urbani / Binding of serum SARS-green to looped/cyclic peptides of protein N of SARS-CoV Urbani: unit not given here

WSFNPETNILLNVPL
Rabbit serum linear peptides [1]: 0.3 | Rabbit serum looped peptides [1]: 0.3 | Binding of Control Serum Blood-Bank to Looped peptides of the protein M of SARS-CoV Urbani [2]: 0.6 | Binding of Control serum Blood-bank to linear peptides of the protein M of SARS-CoV Urbani [2]: 1.3 | Binding of Control serum LUMC to linear peptides of the protein M of SARS-CoV Urbani [2]: 1.5 | Binding of Control serum LUMC to looped peptides of the protein M of SARS-CoV Urbani [2]: 0.8 | Binding of serum 1a to linear peptides of protein M of SARS-CoV Urbani [3]: 1.5 | Binding of serum 1a to looped/cyclic peptides of protein M of SARS-CoV Urbani [3]: 0.8 | Binding of serum 1b to linear peptides of protein M of SARS-CoV Urbani [3]: 1.7 | Binding of serum 1b to looped/cyclic peptides of protein M of SARS-CoV Urbani [3]: 0.5 | Binding of serum 2 to linear peptides of protein M of SARS-CoV Urbani [3]: 1.3 | Binding of serum 2 to looped/cyclic peptides of protein M of SARS-CoV Urbani [3]: 0.6 | Binding of serum 6 to linear peptides of protein M of SARS-CoV Urbani [3]: 1.0 | Binding of serum 6 to looped/cyclic peptides of protein M of SARS-CoV Urbani [3]: 0.5 | Binding of serum 37 to linear peptides of protein M of SARS-CoV Urbani [3]: 0.9 | Binding of serum 37 to looped/cyclic peptides of protein M of SARS-CoV Urbani [3]: 0.7 | Binding of serum 62 to linear peptides of protein M of SARS-CoV Urbani [3]: 1.3 | Binding of serum 62 to looped/cyclic peptides of protein M of SARS-CoV Urbani [3]: 0.7 | Binding of serum London to linear peptides of protein M of SARS-CoV Urbani [3]: 1.0 | Binding of serum London to looped/cyclic peptides of protein M of SARS-CoV Urbani [3]: 0.2 | Binding of serum SARS-green to linear peptides of protein M of SARS-CoV Urbani [3]: 1.5 | Binding of serum SARS-green to looped/cyclic peptides of protein M of SARS-CoV Urbani [3]: 0.2 | Binding of serum SARS-yellow to linear peptides of protein M of SARS-CoV Urbani [3]: 1.1 | Binding of serum SARS-yellow to looped/cyclic peptides of protein M of SARS-CoV Urbani [3]: 0.8

YALIYFLQCINACRI
Binding of a rabbit serum to linear peptides [1]: 0.1 | Binding of a rabbit serum to looped peptides [1]: 0.0 | Binding of Control Serum Blood-Bank to Looped peptides [2]: 0.3 | Binding of Control serum Blood-bank to linear peptides [2]: 0.6 | Binding of Control serum LUMC to linear peptides [2]: 0.6 | Binding of Control serum LUMC to looped peptides [2]: 0.2 | Binding of serum 1a to linear peptides of protein X1 of SARS-CoV Urbani [3]: 0.7 | Binding of serum 1a to looped/cyclic peptide (PEPSCAN-ELISA) [3]: 0.2 | Binding of serum 1b to linear peptides of protein X1 of SARS-CoV Urbani [3]: 0.5 | Binding of serum 1b to looped/cyclic peptide (PEPSCAN-ELISA) [3]: 0.1 | Binding of serum 2 to linear peptides of protein X1 of SARS-CoV Urbani [3]: 0.5 | Binding of serum 2 to looped/cyclic peptide (PEPSCAN-ELISA) [3]: 0.1 | Binding of serum 6 to linear peptides of protein X1 of SARS-CoV Urbani [3]: 0.4 | Binding of serum 6 to looped/cyclic peptide (PEPSCAN-ELISA) [3]: 0.0 | Binding of serum 37 to linear peptides of protein X1 of SARS-CoV Urbani [3]: 0.6 | Binding of serum 37 to looped/cyclic peptide (PEPSCAN-ELISA) [3]: 0.1 | Binding of serum 62 to linear peptides of protein X1 of SARS-CoV Urbani [3]: 0.6 | Binding of serum 62 to looped/cyclic peptide (PEPSCAN-ELISA) [3]: 0.2 | Binding of serum London to linear peptides of protein X1 of SARS-CoV Urbani [3]: 0.3 | Binding of serum London to looped/cyclic peptide (PEPSCAN-ELISA) [3]: 0.1 | Binding of serum SARS-green to linear peptides of protein X1 of SARS-CoV Urbani [3]: 0.2 | Binding of serum SARS-green to looped/cyclic peptide (PEPSCAN-ELISA) [3]: 0.2 | Binding of serum SARS-yellow to linear peptides of protein X1 of SARS-CoV Urbani [3]: 0.4 | Binding of serum SARS-yellow to looped/cyclic peptide (PEPSCAN-ELISA) [3]: 0.0

YFLQCINACRIIMRC
Binding of a rabbit serum to linear peptides [1]: 0.1 | Binding of a rabbit serum to looped peptides [1]: 0.8 | Binding of Control Serum Blood-Bank to Looped peptides [2]: 0.6 | Binding of Control serum Blood-bank to linear peptides [2]: 0.8 | Binding of Control serum LUMC to linear peptides [2]: 0.7 | Binding of Control serum LUMC to looped peptides [2]: 0.6 | Binding of serum 1a to linear peptides of protein X1 of SARS-CoV Urbani [3]: 0.7 | Binding of serum 1a to looped/cyclic peptide (PEPSCAN-ELISA) [3]: 0.6 | Binding of serum 1b to linear peptides of protein X1 of SARS-CoV Urbani [3]: 0.6 | Binding of serum 1b to looped/cyclic peptide (PEPSCAN-ELISA) [3]: 0.4 | Binding of serum 2 to linear peptides of protein X1 of SARS-CoV Urbani [3]: 0.5 | Binding of serum 2 to looped/cyclic peptide (PEPSCAN-ELISA) [3]: 0.4 | Binding of serum 6 to linear peptides of protein X1 of SARS-CoV Urbani [3]: 0.5 | Binding of serum 6 to looped/cyclic peptide (PEPSCAN-ELISA) [3]: 1.6 | Binding of serum 37 to linear peptides of protein X1 of SARS-CoV Urbani [3]: 0.6 | Binding of serum 37 to looped/cyclic peptide (PEPSCAN-ELISA) [3]: 0.5 | Binding of serum 62 to linear peptides of protein X1 of SARS-CoV Urbani [3]: 0.6 | Binding of serum 62 to looped/cyclic peptide (PEPSCAN-ELISA) [3]: 0.6 | Binding of serum London to linear peptides of protein X1 of SARS-CoV Urbani [3]: 0.2 | Binding of serum London to looped/cyclic peptide (PEPSCAN-ELISA) [3]: 1.6 | Binding of serum SARS-green to linear peptides of protein X1 of SARS-CoV Urbani [3]: 0.3 | Binding of serum SARS-green to looped/cyclic peptide (PEPSCAN-ELISA) [3]: 0.2 | Binding of serum SARS-yellow to linear peptides of protein X1 of SARS-CoV Urbani [3]: 0.3 | Binding of serum SARS-yellow to looped/cyclic peptide (PEPSCAN-ELISA) [3]: 0.6
